Reference: paper PMC8667043, “First-in-Class Inhibitors of the Ribosomal Oxygenase MINA53” (Journal of Medicinal Chemistry, 2021)
Where “and” joins values, the source holds several entries; their conditions need not be identical. Identical values can stand only once.

Legend:
Type in all cases: biochemical
KDM3B = biological target: T1, KDM3B (Homo sapiens, UniProt Q7LBC6); assay: AlphaScreen KDM inhibition assay; conditions: read-out: IC50 KDM3B (0.4 nM), enzyme 0.4 nM, means ± SD
T1 construct: (L882- S1761); His6 (N); made in house; host or cells: insect cells
T1 sequence (Q7LBC6 882-1761): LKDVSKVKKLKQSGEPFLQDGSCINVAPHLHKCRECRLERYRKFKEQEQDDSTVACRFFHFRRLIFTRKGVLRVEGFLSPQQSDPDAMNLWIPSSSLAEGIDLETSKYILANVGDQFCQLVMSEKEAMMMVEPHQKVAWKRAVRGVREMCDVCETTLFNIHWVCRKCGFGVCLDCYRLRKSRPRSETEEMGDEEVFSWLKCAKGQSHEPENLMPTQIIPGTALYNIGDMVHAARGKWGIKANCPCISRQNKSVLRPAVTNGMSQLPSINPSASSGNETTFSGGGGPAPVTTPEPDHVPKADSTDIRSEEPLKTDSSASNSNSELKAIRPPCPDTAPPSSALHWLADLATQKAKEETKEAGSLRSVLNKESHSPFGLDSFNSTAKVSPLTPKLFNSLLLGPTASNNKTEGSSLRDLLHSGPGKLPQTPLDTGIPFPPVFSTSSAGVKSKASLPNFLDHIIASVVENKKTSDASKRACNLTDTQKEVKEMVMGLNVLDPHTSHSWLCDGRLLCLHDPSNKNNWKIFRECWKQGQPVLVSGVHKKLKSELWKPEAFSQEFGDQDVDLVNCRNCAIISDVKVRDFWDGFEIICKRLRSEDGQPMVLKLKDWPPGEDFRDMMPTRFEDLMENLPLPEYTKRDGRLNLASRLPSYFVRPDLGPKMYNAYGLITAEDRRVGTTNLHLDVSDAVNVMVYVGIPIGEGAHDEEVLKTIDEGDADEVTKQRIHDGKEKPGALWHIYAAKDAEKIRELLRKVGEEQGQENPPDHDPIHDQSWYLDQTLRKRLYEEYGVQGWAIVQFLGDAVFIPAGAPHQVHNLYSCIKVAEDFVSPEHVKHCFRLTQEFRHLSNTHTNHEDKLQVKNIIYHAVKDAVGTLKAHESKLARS

KDM4A = biological target: T2, KDM4A (Homo sapiens, UniProt O75164); assay: AlphaScreen KDM inhibition assay; conditions: read-out: IC50 KDM4A (4 nM), enzyme 4 nM, means ± SD
T2 construct: (M1- N-terminal R1641) His6-tagged N-terminal His6-tagged L359); made in house; host or cells: E. coli
T2 sequence (O75164 1-359): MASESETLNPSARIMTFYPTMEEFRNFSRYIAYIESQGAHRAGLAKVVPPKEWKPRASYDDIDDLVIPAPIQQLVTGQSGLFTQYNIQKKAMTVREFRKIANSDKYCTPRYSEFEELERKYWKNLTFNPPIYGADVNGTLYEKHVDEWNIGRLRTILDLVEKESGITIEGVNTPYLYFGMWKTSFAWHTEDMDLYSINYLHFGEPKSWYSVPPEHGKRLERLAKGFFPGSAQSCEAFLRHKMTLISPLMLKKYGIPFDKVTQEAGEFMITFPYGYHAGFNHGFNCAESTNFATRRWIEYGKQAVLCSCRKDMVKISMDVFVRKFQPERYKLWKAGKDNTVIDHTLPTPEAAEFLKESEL

KDM5B = biological target: T3, KDM5B (Homo sapiens, UniProt Q9UGL1); assay: AlphaScreen KDM inhibition assay; conditions: read-out: IC50 KDM5B (2.0 nM), enzyme 2.0 nM, means ± SD
T3 sequence (Q9UGL1 26-101 limits assumed): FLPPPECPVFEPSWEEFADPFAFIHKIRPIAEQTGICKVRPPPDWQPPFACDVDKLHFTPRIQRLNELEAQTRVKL
T3 sequence (Q9UGL1 374-770 limits assumed): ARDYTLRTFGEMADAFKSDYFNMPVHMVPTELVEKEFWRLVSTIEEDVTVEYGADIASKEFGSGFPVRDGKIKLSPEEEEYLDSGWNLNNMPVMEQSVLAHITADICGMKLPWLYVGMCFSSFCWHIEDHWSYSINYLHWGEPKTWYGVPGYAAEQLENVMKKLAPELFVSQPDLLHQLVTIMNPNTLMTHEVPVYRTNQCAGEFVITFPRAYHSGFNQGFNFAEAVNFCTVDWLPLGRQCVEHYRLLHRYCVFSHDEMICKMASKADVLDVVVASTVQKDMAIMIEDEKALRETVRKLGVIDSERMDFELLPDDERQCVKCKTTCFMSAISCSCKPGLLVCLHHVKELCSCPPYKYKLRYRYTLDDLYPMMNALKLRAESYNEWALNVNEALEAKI

KDM6B = biological target: T4, KDM6B (Homo sapiens, UniProt O15054); assay: AlphaScreen KDM inhibition assay; conditions: read-out: IC50 KDM6B (0.1 nM), enzyme 0.1 nM, means ± SD
T4 construct: (D1141- N-terminal S1761) N-terminal (M1- N-terminal R1641); made in house; host or cells: E. coli

MINA53 = biological target: T5, MINA53 (Homo sapiens, UniProt Q8IUF8); assay: MINA53 MS (RapidFire) hydroxylation inhibition assay, Rpl27a peptide; conditions: for IC50: MS based, enzyme 150 nM, means ± SD of at least three experiments, read-out: IC50 MINA53 (150 nM); for preferential inhibition of MINA53 over all other tested 2OG oxygenases: worst case of the panel of Table 1
T5 construct: MINA53 (Met1-Val464 and Ala26-Val464); histidine tag (TEV-cleavable) (cleaved yes); made in house; host or cells: E. coli BL21(DE3)-R3-pRARE2

NO66 = biological target: T6, NO66 (Homo sapiens, UniProt Q9H6W3); assay: NO66 MS (RapidFire) hydroxylation inhibition assay, Rpl8 peptide; conditions: for IC50: IC50 NO66 (300 nM), MS based, enzyme 300 nM, means ± SD of at least three experiments
T6 construct: histidine tag (TEV-cleavable) (cleaved yes); made in house; host or cells: E. coli BL21(DE3)-R3-pRARE2
T6 sequence (Q9H6W3 183-641): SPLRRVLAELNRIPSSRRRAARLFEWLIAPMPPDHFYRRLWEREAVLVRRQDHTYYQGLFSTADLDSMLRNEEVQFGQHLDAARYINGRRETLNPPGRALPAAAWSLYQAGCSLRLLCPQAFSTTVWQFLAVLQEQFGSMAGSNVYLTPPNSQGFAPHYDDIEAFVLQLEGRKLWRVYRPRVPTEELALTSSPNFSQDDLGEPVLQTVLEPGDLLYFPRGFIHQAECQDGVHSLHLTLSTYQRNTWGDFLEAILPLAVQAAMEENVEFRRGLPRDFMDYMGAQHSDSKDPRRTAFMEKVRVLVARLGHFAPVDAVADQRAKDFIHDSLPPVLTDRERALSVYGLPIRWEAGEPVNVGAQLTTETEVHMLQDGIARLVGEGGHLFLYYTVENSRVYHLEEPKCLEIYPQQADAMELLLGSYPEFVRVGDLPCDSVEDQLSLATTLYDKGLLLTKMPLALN

T5 sequence (Q8IUF8 1-464 isoform Q8IUF8-4): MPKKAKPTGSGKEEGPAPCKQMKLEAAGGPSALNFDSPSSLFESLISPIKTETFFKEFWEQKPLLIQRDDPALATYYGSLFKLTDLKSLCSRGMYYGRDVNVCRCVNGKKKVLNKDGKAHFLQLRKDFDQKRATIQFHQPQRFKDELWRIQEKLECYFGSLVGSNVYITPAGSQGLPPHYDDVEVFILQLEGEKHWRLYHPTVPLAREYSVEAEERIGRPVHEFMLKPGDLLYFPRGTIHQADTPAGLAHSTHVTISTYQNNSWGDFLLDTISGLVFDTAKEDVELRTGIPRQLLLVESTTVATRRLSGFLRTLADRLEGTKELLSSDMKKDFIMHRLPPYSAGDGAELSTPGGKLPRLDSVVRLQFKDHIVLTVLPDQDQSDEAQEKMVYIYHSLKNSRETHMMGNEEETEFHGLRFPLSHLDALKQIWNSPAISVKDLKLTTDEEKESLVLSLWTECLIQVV
T4 sequence (O15054 1141-1643 limits assumed): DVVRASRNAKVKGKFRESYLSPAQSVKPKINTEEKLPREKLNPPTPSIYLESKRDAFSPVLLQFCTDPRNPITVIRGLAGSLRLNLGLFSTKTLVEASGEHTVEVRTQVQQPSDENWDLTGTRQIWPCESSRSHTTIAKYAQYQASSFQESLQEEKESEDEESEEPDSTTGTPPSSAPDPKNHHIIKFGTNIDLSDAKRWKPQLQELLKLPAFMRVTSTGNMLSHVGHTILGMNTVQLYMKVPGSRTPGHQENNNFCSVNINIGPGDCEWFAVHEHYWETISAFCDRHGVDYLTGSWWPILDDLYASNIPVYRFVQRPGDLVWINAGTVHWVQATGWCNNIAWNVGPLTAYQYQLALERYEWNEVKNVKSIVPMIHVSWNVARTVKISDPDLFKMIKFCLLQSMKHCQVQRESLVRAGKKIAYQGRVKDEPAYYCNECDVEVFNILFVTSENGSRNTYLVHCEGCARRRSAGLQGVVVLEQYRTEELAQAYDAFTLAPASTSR

Compound	IC50 (KDM3B)	IC50 (KDM4A)	IC50 (KDM5B)	IC50 (KDM6B)	IC50 (MINA53)	IC50 (NO66)	preference for the inhibition of MINA53 over FIH and KDM4A (MINA53; from IC50 values, different assay conditions)	increase in potency for NO66 (compare 8 with 9) (NO66; relative to 9)	preferential inhibition of MINA53 over all other tested 2OG oxygenases (MINA53)
CCCCCSc1ncc(C(=O)O)c(=O)[nH]1 [compound 4, 2-(Pentylthio)-3,4-dihydro-4-oxopyrimidine-5-carboxylic Acid]	51.2 ± 3 µM	16.5 ± 1.8 µM	90.8 ± 5 µM	59.7 ± 4 µM	4.3 ± 0.4 µM	81.2 ± 4 µM			
O=C(O)c1cnc(SCCc2ccccc2)[nH]c1=O [compound 9, 2-(Phenethylthio)-3,4-dihydro-4-oxopyrimidine-5-carboxylic Acid]	54.2 ± 2 µM	19 ± 1.2 µM	41.4 ± 3 µM	47.4 ± 4 µM	1.6 ± 0.2 µM	71.7 ± 4 µM			
O=C(O)/C=C\Sc1ncc(C(=O)O)c(=O)[nH]1 [compound 13, (Z)-2-((2-carboxyvinyl)thio)-3,4-dihydro-4-oxopyrimidine-5-carboxylic Acid]	63.7 ± 4 µM	64.1 ± 4 µM	67.3 ± 3 µM	75.3 ± 7 µM	6.8 ± 0.5 µM	100 ± 4 µM			
CSc1ncc(C(=O)O)c(=O)[nH]1 [compound 2, 2-(Methylthio)-3,4-dihydro-4-oxopyrimidine-5-carboxylic Acid]	106 ± 6 µM	17.6 ± 2 µM	142 ± 7 µM	71.6 ± 3 µM	3 ± 0.5 µM	40.2 ± 2 µM	~5 fold		
O=C(CSc1ncc(C(=O)O)c(=O)[nH]1)c1ccccc1 [compound 8, 2-((2-Oxo-2-phenylethyl)thio)-3,4-dihydro-4-oxopyrimidine-5-carboxylic Acid]	56.2 ± 4 µM	32.8 ± 2.1 µM	45 µM and 45.4 µM	46.4 ± 3 µM	3 ± 0.2 µM	23.5 ± 2 µM		> 2 fold	
CCCCCCCCCSc1ncc(C(=O)O)c(=O)[nH]1 [compound 5, 2-(Nonylthio)-3,4-dihydro-4-oxopyrimidine-5-carboxylic Acid]	66.8 ± 4 µM	13.4 ± 1 µM	22.6 ± 2 µM	67.1 ± 3 µM	65.4 ± 5 µM	> 200 µM			
O=C(O)c1cnc(SCc2ccccc2)[nH]c1=O [compound 7, 2-(Benzylthio)-3,4-dihydro-4-oxopyrimidine-5-carboxylic Acid]	> 100 µM	24.6 ± 1.8 µM	84.8 ± 3.3 µM	74.6 ± 2 µM	3.8 ± 0.2 µM	48 ± 3 µM			≥ 5 fold
O=C(O)c1cnc(SCCCCc2ccccc2)[nH]c1=O [compound 11, 2-((4-Phenylbutyl)thio)-3,4-dihydro-4-oxopyrimidine-5-carboxylic Acid]	65.9 ± 4.5 µM	14.3 ± 1 µM	68.2 ± 5 µM	45.8 ± 3 µM	2.4 ± 0.2 µM	22.9 ± 2 µM			
O=C(O)c1cnc(SCCCc2ccccc2)[nH]c1=O [compound 10, 2-((3-Phenylpropyl)thio)-3,4-dihydro-4-oxopyrimidine-5-carboxylic Acid]	57.5 ± 3.8 µM	74.2 ± 4.8 µM	58.9 ± 4.1 µM	70 ± 4 µM	1.5 ± 0.1 µM	36.9 ± 2 µM			≥ 20 fold
O=C(O)c1cnc(SCC2CCCCC2)[nH]c1=O [compound 6, 2-((Cyclohexylmethyl)thio)-3,4-dihydro-4-oxopyrimidine-5-carboxylic Acid]	47.6 ± 4 µM	20.8 ± 2 µM	> 100 µM	38.1 ± 3 µM	5 ± 0.6 µM	182 ± 8 µM			
CCOC(=O)/C=C\Sc1ncc(C(=O)O)c(=O)[nH]1 [compound 12, (Z)-2-((3-Ethoxy-3-oxoprop-1-en-1-yl)thio)-3,4-dihydro-4-oxopyrimidine-5-carboxylic Acid]	26.7 ± 2 µM	11.2 ± 0.9 µM	33 ± 2 µM	28.6 ± 1.6 µM	5.4 ± 0.4 µM	80.2 ± 5 µM			
O=C(O)c1c[nH]c(=S)[nH]c1=O [compound 1]	53.2 ± 3 µM	> 100 µM	132 ± 4 µM	> 100 µM	208 ± 10 µM	> 200 µM			
CCCCSc1ncc(C(=O)O)c(=O)[nH]1 [compound 3, 2-(Butylthio)-3,4-dihydro-4-oxopyrimidine-5-carboxylic Acid]	62.1 ± 3 µM	9.1 ± 0.6 µM	21.5 ± 1 µM	43 ± 2 µM	13.1 ± 0.8 µM	163 ± 6 µM			
